From patent US20100272829A1, “COMPOSITION FOR TRANSDERMAL OR TRANSMUCOSAL ADMINISTRATION” (priority 2007, published 2010)

What was measured:
[1] = tested on: Malassezia furfur NBRC 0656; assay: Antibacterial test I (MIC) by a liquid culture method; assay type: cell-based; settings: Sabouraud glucose medium + 1% olive oil, shaking at 30° C., 10^6cfu/mL
Description: With respect to the composition of zinc pyrithione and hydrous titanium oxide of Example 2, an antibacterial test (MIC) against Malassezia furfur by a liquid culture method was performed in comparison with zinc pyrithione.
Sample 17: Composition of zinc pyrithione (manufactured by Arch Chemicals, Inc.) and hydrous titanium oxide (Example 2) Sample 18: Zinc pyrithione (manufactured by Arch Chemicals, Inc.) Test fungi: Malassezia furfur NBRC 0656 Test medium: 1% olive oil is added to Sabouraud glucose medium Test conditions: shaking culture at 30° C. for 4 days (120 rpm)

[2] = Solubility in artificial seawater (zinc determined by atomic absorption spectrometry); assay type: physicochemical
Description: The solubility of samples shown below in artificial sweater was measured.
Artificial sweater (pH of 7.8) was added to each sample shown below to make total amount of 500 mL, followed by shaking at 20° C. for 24 hours. After filtration, determination of zinc was performed by subjecting the filtrate to atomic absorption spectrometry.

[3] = tested on: Malassezia furfur NBRC 0656; assay: Antibacterial test II (MIC) by an agar medium; assay type: cell-based; settings: YM agar medium added with olive oil, 28° C., 10^5cfu/mL
Description: With respect to the composition of zinc pyrithione and hydrous titanium oxide (Example 3), an antibacterial test (MIC) against Malassezia furfur by an agar medium was performed in comparison with zinc pyrithione.
Sample 19: Composition of zinc pyrithione (manufactured by Kolon Life Science Inc.) and hydrous titanium oxide (Example 3) Sample 20: Zinc pyrithione (manufactured by Kolon Life Science Inc.) Test fungi: Malassezia furfur NBRC 0656 Test medium: YM agar medium added with olive oil Test conditions: culture at 28° C. for 7 days

[4] = Yellowness (b* value) of water suspension samples allowed to stand outside for 10 days (photolysis); assay type: physicochemical; settings: suspension in distilled water, dried and ground
Description: The following water suspension samples are charged in a glass bottle, allowed to stand outside for 10 days, dried and ground, and then yellowness (b* value) was measured by a colorimeter.

[5] = artificial seawater pH 7.8, shaking at 20° C. for 24 hours, filtrate

zinc pyrithione [Sample 2]
MIC, 2 days ([1]; 2 days): 6.25 µg/mL
MIC, 4 days ([1]; 4 days): 6.25 µg/mL
Solubility in artificial seawater I: Quantitative value of zinc [2, 5]: 1.16 µg/mL
Solubility in artificial seawater I: Value in terms of zinc pyrithione [2, 5]: 5.64 µg/mL

zinc pyrithione [Sample 6]
MIC, 7 days [3]: 6.25 µg/mL
Solubility in artificial seawater II: Value in terms of zinc pyrithione ([2]; artificial seawater pH 7.8, 20° C., 24 hours): 5.24 µg/mL
Solubility in artificial seawater II: Quantitative value of zinc ([2]; artificial seawater pH 7.8, 20° C., 24 hours, for samples 7 and 8 zinc derived from zinc pyrithione and zinc oxide): 1.07 µg/mL

zinc pyrithione [Sample 9]
Yellowness (b* value) [4]: 8.80
